Tested on: Plasmodium berghei
Test: Luciferase/luciferin-expressing antifolate-resistant parasites were used to infect a culture of HepG2 cells that were pre-incubated with compounds. Infected hepatocytes emit light due to the luciferase reaction. Assay results are presented as the percent inhibition of light emission compared to control. […]
Format: functional
Details: sporozoite; for IC90: read-out: LUCIFERASE INFECTION ASSAY - IC90

Structure (SMILES) | IC90 | further results
Cc1ccc(C(=O)OCC(=O)c2cc(C)n(-c3cccc(C(F)(F)F)c3)c2C)cc1NC(=O)c1ccco1 | > 10 µM | IC50 (FFLUC_HILL_SLOPE 14.7, FFLUC_R_SQUARED 0.458, read-out: LUCIFERASE INFECTION ASSAY - IC50): > 10 µM
CSc1nccc(-c2ccsc2)n1 | > 15.8 µM | IC50 (FFLUC_HILL_SLOPE 14.6, FFLUC_R_SQUARED 0.758, read-out: LUCIFERASE INFECTION ASSAY - IC50): > 15.8 µM
c1cnc(N2CCN(CCCNc3ncnc4sccc34)CC2)nc1 | > 10 µM | IC50 (FFLUC_HILL_SLOPE 14.8, FFLUC_R_SQUARED 0.258, HEPG2TOX_HILL_SLOPE 2.5, HEPG2TOX_R_SQUARED 0.964, PBLUC_HILL_SLOPE 9.27, PBLUC_R_SQUARED 0.473, read-out: LUCIFERASE INFECTION ASSAY - IC50): 8.5 µM
COc1ccc(Nc2n[nH]c(NC(=O)Cc3c(Cl)cccc3Cl)c2C#N)cc1 | 0.506 µM | IC50 (FFLUC_HILL_SLOPE 14.5, FFLUC_R_SQUARED 0.631, HEPG2TOX_HILL_SLOPE 1.37, HEPG2TOX_R_SQUARED 0.939, PBLUC_HILL_SLOPE 1.1, PBLUC_R_SQUARED 0.834, read-out: LUCIFERASE INFECTION ASSAY - IC50): 0.069 µM
Cc1cc(C(=O)CN2C(=O)NC(C)(C3CC3)C2=O)c(C)n1C(c1ccccc1)c1ccccc1 (stereo not given) | 6.7 µM | IC50 (FFLUC_HILL_SLOPE 14.7, FFLUC_R_SQUARED 0.253, PBLUC_HILL_SLOPE 1.67, PBLUC_R_SQUARED 0.756, read-out: LUCIFERASE INFECTION ASSAY - IC50): 1.8 µM
N#Cc1ccc(/C=C(\c2nc3ccccc3[nH]2)c2nc3ccccc3s2)cc1 | 1.53 µM | IC50 (FFLUC_HILL_SLOPE 15, FFLUC_R_SQUARED 0.447, HEPG2TOX_HILL_SLOPE 15.3, HEPG2TOX_R_SQUARED 0.806, PBLUC_HILL_SLOPE 8.27, PBLUC_R_SQUARED 0.505, read-out: LUCIFERASE INFECTION ASSAY - IC50): 1.17 µM
CC1(C(=O)NCCC(F)(F)F)Cc2c(-c3ccc4c(c3)OCO4)ccnc2O1 (stereo not given) | 6.15 µM | IC50 (FFLUC_HILL_SLOPE 14.8, FFLUC_R_SQUARED 0.74, HEPG2TOX_HILL_SLOPE 2.73, HEPG2TOX_R_SQUARED 0.858, PBLUC_HILL_SLOPE 3.16, PBLUC_R_SQUARED 0.521, read-out: LUCIFERASE INFECTION ASSAY - IC50): 3.07 µM
CC(C)(C)c1cc(NC(=O)COc2ccc3[nH]c4ccccc4c(=O)c3c2)n(-c2ccccc2)n1 | 0.752 µM | IC50 (FFLUC_HILL_SLOPE 14.6, FFLUC_R_SQUARED 0.0178, PBLUC_HILL_SLOPE 1.61, PBLUC_R_SQUARED 0.936, read-out: LUCIFERASE INFECTION ASSAY - IC50): 0.192 µM
Fc1ccc(/N=c2\scc(-c3ccc4c(c3)OCCO4)n2C2CCCC2)cc1 | 1.58 µM | IC50 (FFLUC_HILL_SLOPE 15, FFLUC_R_SQUARED 0.34, HEPG2TOX_HILL_SLOPE 7.4, HEPG2TOX_R_SQUARED 0.523, PBLUC_HILL_SLOPE 11.6, PBLUC_R_SQUARED 0.501, read-out: LUCIFERASE INFECTION ASSAY - IC50): 1.31 µM
Cc1onc(-c2c(Cl)cccc2Cl)c1-c1nc(-c2cc(-c3ccccc3)c(C(F)(F)F)s2)cs1 | > 6.14 µM | IC50 (FFLUC_HILL_SLOPE 14.8, FFLUC_R_SQUARED 0.219, HEPG2TOX_HILL_SLOPE 0.104, HEPG2TOX_R_SQUARED 0.184, PBLUC_HILL_SLOPE 1.63, PBLUC_R_SQUARED 0.31, read-out: LUCIFERASE INFECTION ASSAY - IC50): > 6.14 µM
O=C(N/N=C/c1cccc(O)c1O)c1ccc(CN2c3cccc4cccc(c34)S2(=O)=O)cc1 | > 10 µM | IC50 (FFLUC_HILL_SLOPE 14.9, FFLUC_R_SQUARED 0.808, read-out: LUCIFERASE INFECTION ASSAY - IC50): > 10 µM
Cc1ccc(/N=C2\SCC(C)N2C(=O)c2ccccc2SCC(=O)NCC2CCCCC2)c(C)c1 (stereo not given) | > 10 µM | IC50 (FFLUC_HILL_SLOPE 15, FFLUC_R_SQUARED 0.0481, HEPG2TOX_HILL_SLOPE 2.13, HEPG2TOX_R_SQUARED 0.879, PBLUC_HILL_SLOPE 4.29, PBLUC_R_SQUARED 0.235, read-out: LUCIFERASE INFECTION ASSAY - IC50): 8.13 µM
Cc1ccc(CNc2ccc3nnc(C(F)(F)F)n3n2)cc1 | > 10 µM | IC50 (FFLUC_HILL_SLOPE 15, FFLUC_R_SQUARED 0.243, read-out: LUCIFERASE INFECTION ASSAY - IC50): > 10 µM
O=C(NC1CCCc2ccccc21)c1cc(-c2cccs2)nn1-c1ccccc1 (stereo not given) | > 10 µM | IC50 (FFLUC_HILL_SLOPE 14.9, FFLUC_R_SQUARED 0.608, PBLUC_HILL_SLOPE 2.01, PBLUC_R_SQUARED 0.0278, read-out: LUCIFERASE INFECTION ASSAY - IC50): 6.82 µM
CC1=C(C(=O)OC2CCC(C)CC2)C(c2ccc(C)cc2)NC(=O)N1 (stereo not given) | > 9.64 µM | IC50 (FFLUC_HILL_SLOPE 14.5, FFLUC_R_SQUARED 0.355, read-out: LUCIFERASE INFECTION ASSAY - IC50): > 9.64 µM
Nc1nc(CNC(c2ccccc2)c2ccc(Cl)cc2)nc(Nc2ccccc2)n1 (stereo not given) | > 10 µM | IC50 (FFLUC_HILL_SLOPE 14.9, FFLUC_R_SQUARED 0.741, read-out: LUCIFERASE INFECTION ASSAY - IC50): > 10 µM
Cc1onc(-c2ccc(Cl)cc2)c1-c1ccnc(SCC(=O)c2ccc([N+](=O)[O-])cc2)n1 | > 7.07 µM | IC50 (FFLUC_HILL_SLOPE 14.7, FFLUC_R_SQUARED 0.642, read-out: LUCIFERASE INFECTION ASSAY - IC50): > 7.07 µM
COc1ccc(Cl)cc1N1C(=O)/C(=C\c2sccc2C)N=C1SCc1cc(=O)n2ccsc2n1 | > 10 µM | IC50 (FFLUC_HILL_SLOPE 14.8, FFLUC_R_SQUARED 0.288, PBLUC_HILL_SLOPE 0.636, PBLUC_R_SQUARED 0.525, read-out: LUCIFERASE INFECTION ASSAY - IC50): 2.55 µM
COc1c(Cl)cc(Br)c(OC)c1C(=O)NC(=O)Nc1cc(C(F)(F)F)cc(C(F)(F)F)c1 | 2.27 µM | IC50 (FFLUC_HILL_SLOPE 14.8, FFLUC_R_SQUARED 0.569, HEPG2TOX_HILL_SLOPE 7.93, HEPG2TOX_R_SQUARED 0.303, PBLUC_HILL_SLOPE 13, PBLUC_R_SQUARED 0.4, read-out: LUCIFERASE INFECTION ASSAY - IC50): 1.92 µM
CC(C(OC(=O)c1ccc(S(=O)(=O)N(C)C)cc1)c1ccccc1)N(C)S(=O)(=O)c1ccc(Cl)cc1 (stereo not given) | > 10 µM | IC50 (FFLUC_HILL_SLOPE 14.7, FFLUC_R_SQUARED 0.389, PBLUC_HILL_SLOPE 2.36, PBLUC_R_SQUARED 0.776, read-out: LUCIFERASE INFECTION ASSAY - IC50): 7.17 µM
COc1ccc(-c2cc(NC(=O)Cc3ccc(S(=O)(=O)N4CCCC4)s3)ccc2OC)cc1 | 4.64 µM | IC50 (FFLUC_HILL_SLOPE 14.7, FFLUC_R_SQUARED 0.565, HEPG2TOX_HILL_SLOPE 10.6, HEPG2TOX_R_SQUARED 0.932, PBLUC_HILL_SLOPE 12.2, PBLUC_R_SQUARED 0.78, read-out: LUCIFERASE INFECTION ASSAY - IC50): 3.88 µM
COc1ccc(-c2csc3ncnc(NC4CCN(S(C)(=O)=O)CC4)c23)cc1 | > 10 µM | IC50 (FFLUC_HILL_SLOPE 15, FFLUC_R_SQUARED 0.503, HEPG2TOX_HILL_SLOPE 1.74, HEPG2TOX_R_SQUARED 0.848, read-out: LUCIFERASE INFECTION ASSAY - IC50): > 10 µM
COc1cc([N+](=O)[O-])ccc1NC(=O)COC(=O)c1c(C)nn(Cc2ccc(Cl)cc2Cl)c1Cl | > 10 µM | IC50 (FFLUC_HILL_SLOPE 15, FFLUC_R_SQUARED 0.28, read-out: LUCIFERASE INFECTION ASSAY - IC50): > 10 µM
CCCCNC(=O)c1c(NC(=O)c2ccc(Cl)cc2)nc2ccccn12 | 3 µM | IC50 (FFLUC_HILL_SLOPE 14.7, FFLUC_R_SQUARED 0.115, HEPG2TOX_HILL_SLOPE 1.94, HEPG2TOX_R_SQUARED 0.747, PBLUC_HILL_SLOPE 14.3, PBLUC_R_SQUARED 0.4, read-out: LUCIFERASE INFECTION ASSAY - IC50): 2.58 µM
Cc1ccc(-n2ncc(Cl)c(Cl)c2=O)cc1 | > 12.9 µM | IC50 (FFLUC_HILL_SLOPE 14.5, FFLUC_R_SQUARED 0.489, HEPG2TOX_HILL_SLOPE 2.71, HEPG2TOX_R_SQUARED 0.789, PBLUC_HILL_SLOPE 3.3, PBLUC_R_SQUARED 0.431, read-out: LUCIFERASE INFECTION ASSAY - IC50): 8.02 µM
O=C(CSc1nnnn1-c1ccccc1)N1N=C2/C(=C/c3ccc(F)cc3)CCCC2C1c1ccc(F)cc1 (stereo not given) | > 10 µM | IC50 (FFLUC_HILL_SLOPE 14.4, FFLUC_R_SQUARED 0.768, PBLUC_HILL_SLOPE 7.48, PBLUC_R_SQUARED 0.336, read-out: LUCIFERASE INFECTION ASSAY - IC50): 8.21 µM
O=C1C=CC(=O)N1c1ccc(-c2csnn2)cc1 | > 12.8 µM | IC50 (FFLUC_HILL_SLOPE 14.6, FFLUC_R_SQUARED 0.441, read-out: LUCIFERASE INFECTION ASSAY - IC50): > 12.8 µM
c1ccc(-c2ccc(C3=Nc4ccccc4SC(c4ccco4)C3)cc2)cc1 (stereo not given) | 4.75 µM | IC50 (FFLUC_HILL_SLOPE 14.5, FFLUC_R_SQUARED 0.557, PBLUC_HILL_SLOPE 1.32, PBLUC_R_SQUARED 0.568, read-out: LUCIFERASE INFECTION ASSAY - IC50): 0.903 µM
Cc1ccc(CNCc2nc(NCc3ccc(C)cc3)c3c(C)c(C)sc3n2)cc1 | 4.22 µM | IC50 (FFLUC_HILL_SLOPE 14.5, FFLUC_R_SQUARED 0.473, HEPG2TOX_HILL_SLOPE 357, HEPG2TOX_R_SQUARED 0.506, PBLUC_HILL_SLOPE 12.5, PBLUC_R_SQUARED 0.0149, read-out: LUCIFERASE INFECTION ASSAY - IC50): 3.54 µM
COc1ccc(-n2cnnc2SCC(=O)NC(=O)NC2CCCC2)cc1 | > 10 µM | IC50 (FFLUC_HILL_SLOPE 14.6, FFLUC_R_SQUARED 0.0899, read-out: LUCIFERASE INFECTION ASSAY - IC50): > 10 µM
